Values of other authors, collected in patent US20030124112A1, “Use of a lacrophyl preparation in eye drops containing therpeutically active compounds” (priority 2000, published 2003).

Legend:
[1] = system: tear lysozyme; details: dropped in the eye, glaucome
[2] = 0.0001% benzalkonium-chloride, in vitro

Compound: CC(C)(C)NCC(O)COc1cccc2c1CCC(=O)N2 (stereo not drawn) [cartelol]
- effect on amount of tear lysozyme [1]: decrease of the amount of tear lysozyme

Compound: benzalkonium-chloride
- effect on cells [2]: causes cell death

Compound: CC(C)(C)NC[C@H](O)COc1nsnc1N1CCOCC1 [timolol]
- effect on amount of tear lysozyme [1]: decrease of the amount of tear lysozyme
